Patent US4876284A, “1-alkyl-2-aminotetralin derivatives” (Per Arvid Emil Carlsson, priority 1981, dated 1989)

Legend:
DA autoreceptors = assay: Spontaneous locomotor activity in non-pretreated rats; type: in vivo, rat; conditions: non-pretreated rats
Method: Untreated animals exposed to a new environment display an initial high motor activity which then gradually declines over a period of time. Administration of DA-receptor agonists (e.g. apomorphine) in doses where preferential autoreceptor stimulation is likely to occur, causes a depression of the spontaneous motility mentioned above, considered to be due to the DA autoreceptor-medicated attenuation of central DA transmission.
Rats (150-300 g) were injected subcutaneously with compound 2,5-OH-DPAT or apomorphine and after 5 minutes they were individually placed in motility boxes ("M/P 40 Fc Electronic Motility Meter". Motron Products, Stockholm) and the motor activity (0-30 min) was quantified. […] These findings are in congruence with the results obtained with the selective DA-autoreceptor agonist 3-PPP [S. Hjorth t al., Life Sciences, 28, 1225 (1981)] but in sharp contrast to the results obtained with 5-OH-DPAT and apomorphine (Table III).
Non-pretreated rats were given compound -2 (0.0625-16.0 mg/kg),
5OH--2-(di-n-propylamino) tetralin (5OH--DPAT; 0.0125-0.05 mg/kg,
apomorphine (0.1-1.0 mg/kg) or saline subcutaneously. Five minutes later
they were placed individually into motility meters and the locomotor

[1] = tested on: central DA-receptor (pre- and/or postsynaptic); conditions: reserpine-pretreated rats, s.c., cited from earlier work
[2] = tested on: postsynaptic DA receptors; assay: Antagonism of the reserpine plus α-methyl-para-tyrosine-induced immobility (neuroleptic syndrome) in rats; motor activity; conditions: for Motor activity: reserpine 10 mg/kg + α-methyl-para-tyrosine 250 mg/kg i.p., means ± s.e.m.; for motor response / postsynaptic DA-receptor stimulatory effects: comparative study, Table II, s.c.; for antagonism of the reserpine-induced syndrome / behaviour elicited / postsynaptic DA-receptor stimulation: reserpine and α-methyl-para-tyrosine pretreated rats
[3] = tested on: central DA-receptor (pre- and/or postsynaptic); assay: Rat-brain in-vivo tyrosine hydroxylation: Dopa accumulation after NSD 1015 in reserpine-pretreated rats; conditions: reserpine-pretreated rats
Method: The compounds under evaluation were tested biochemically for central DA-receptor (pre- and/or postsynaptic) stimulating activity. The concept of this biochemical screening method is that a DA-receptor agonist will stimulate the receptor and through regulatory feedback systems effect a decline in tyrosine hydroxylase activity and thus a subsequent reduction in the synthesis rate for DA in the presynaptic neuron. Dopa formation, as determined after in-vivo inhibition of the aromatic L-amino acid decarboxylase with NSD 1015 (3-hydroxybenzyl-hydrazine hydrochloride), is taken as an indirect measure of DA synthesis rate.
Rats (150-300 g) pretreated with reserpine were given the compounds under evaluation. Gross behavioural observations (changes in motility, stereotypies etc.) were made in order to evaluate possible postsynaptic dopamine receptor activity. subsequent administration of NSD 1015, decapitation, brain dissection [corpora striata, limbic fore-brain and rest of the hemispheral parts (cortex)]homogenization, centrifugation, ion-exchange chromatography and spectro-fluorimetric measurements (all as described in detail by Wikstrom et al., in J. Med. Chem. 21, 864-867, 1978 and references cited therein), gave the actual Dopa levels.
Several doses (n=4-6) were tested in order to obtain dose-response curves for each compound and brain area. The dose of a compound producing a half-maximal decrease in the Dopa level in the rat brain part was then estimated. These values (ED50) are presented in Table I. (Simultaneous determination of the 5-HTP levels was also performed utilizing the same paradigm.)
^b Rats pretreated with reserpine (10 mg/kg i.p.; 18 h) were given th
compounds under evaluation. Fortyfive minutes later they were injected
with NSD 1015 (100 mg/kg i.p.) and after a further 30 min they were
decapitated, the brains rapidly dissected and taken for determination of
the Dopa and 5HTP levels in different areas of the brain. The dose of a
compound producing a halfmaximal decrease (ED50) in the Dopa level i
the rat brain part was then estimated from doseresponse curves comprising
4-6 dose levels. (For further details see the text and references).

Structure (SMILES) | Locomotor activity (DA autoreceptors; 0.0125 mg/kg s.c.) [counts 0.30 min] | Locomotor activity (DA autoreceptors; 0.05 mg/kg s.c.) [counts 0.30 min] | effect on locomotor activity, in words (DA autoreceptors; s.c.) | Dopa-accumulation; ED50, Limbic (taken from Hacksell et al., J. Med. Chem. 22, 1469 (1979)) ([1]; limbic forebrain) [μmol/kg s.c.] | Dopa-accumulation; ED50, Striatum (taken from Hacksell et al., J. Med. Chem. 22, 1469 (1979)) ([1]; striatum) [μmol/kg s.c.] | Motor activity ([2]; 0.75 mg/kg s.c.) [counts 0-60 min] | motor response / postsynaptic DA-receptor stimulatory effects [2] | antagonism of the reserpine-induced syndrome / behaviour elicited [2] | postsynaptic DA-receptor stimulation [2] | Dopa-accumulation; ED50, Limbic ([3]; limbic forebrain, half-maximal decrease in Dopa level, s.c.) [μmol/kg s.c.] | Dopa-accumulation; ED50, Striatum ([3]; striatum, half-maximal decrease in Dopa level, s.c.) [μmol/kg s.c.] | Motor activity ([2]; 10 mg/kg s.c.) [counts 0-60 min] | Dopa-accumulation; ED50, Limbic (class symbol) ([3]; limbic forebrain, s.c.) | biochemical activity (Dopa accumulation), in words ([3]; inactive even at 45 μmol/kg) | Dopa-accumulation; ED50, Striatum (class symbol) ([3]; striatum, s.c.)
CCCN(CCC)C1CCc2c(O)cccc2C1 (stereo not drawn) [Compound 5-OHDPAT, 5-hydroxy-2-(di-n-propylamino)tetralin] | 84 ± 11 | 380 ± 24 | lower doses significantly suppressing and higher dosess significantly stimulating the rat locomotor activity | 0.111 | 0.009 | 620 ± 20 | strong central postsynaptic DA-receptor stimulatory effects | pronounced stereotyped and hyperactive behaviour | efficient postsynaptic DA-receptor stimulants | – | – | – | – | – | –
CCCN(CCC)[C@@H]1CCc2c(O)cccc2[C@H]1C (relative stereo) [trans-1-CH35-OHDPAT, trans-1-methyl-5-hydroxy-2-(di-n-propylamino)tetralin] | – | – | – | – | – | – | strong central postsynaptic DA-receptor stimulatory effects | pronounced stereotyped and hyperactive behaviour | efficient postsynaptic DA-receptor stimulants | 0.66 | 0.73 | 406 ± 47 | – | – | –
CCCN(CCC)C1CCc2c(O)cccc2C1(C)C (stereo not drawn) [1,1-di-CH35-OHDPAT, 1,1di-CH35-OH2-(di-n-propylamino) tetralin] | – | – | – | – | – | – | – | – | – | – | – | – | I (Inactive. ED50 > 45 μmol/kg.) | completely inactive | I (Inactive. ED50 > 45 μmol/kg.)
